From patent US9387204B2, “Fused bicyclic imidazoles” (BAYER INTELLECTUAL PROPERTY GmbH, priority 2007, dated 2016)

Each molecule was assayed on A549 cells (assay: Cellular proliferation/cytotoxicity assay (Alamar Blue), A549 cells). Details: Homo sapiens, A549, 72 h, read-out: Anti-proliferative/Cytotoxic activity (A549 cells).
Procedure: The anti-proliferative activity of the compounds as described herein, is evaluated using the OvCAR3, HCT116 and A549 cell lines and the Alamar Blue (Resazurin) cell viability assay (O'Brien et al. Eur J Biochem 267, 5421-5426, 2000). Resazurin is reduced to the fluorescent resorufin by cellular dehydrogenase activity, correlating with viable, proliferating cells. Test compounds are dissolved as 10 mM solutions in DMSO and subsequently diluted. Cells like HCT116 or A549 cells were seeded into 96 well flat bottom plates at a density of 10000 cells/well (OvCAR3 cells), 1000 cells/well (HCT116 cells) or 2000 cells/well (A549 cells) in a volume of 200 μl/well. 24 hours after seeding, 1 μl each of the compound dilutions are added into each well of the 96 well plates. Each compound dilution is tested as at least as duplicates. Wells containing untreated control cells were filled with 200 μl DMEM (Dulbecco's Modified Eagle Medium) containing 0.5 vol % v:v DMSO. The cells are then incubated with the substances for 72 h at 37° C. in a humidified atmosphere containing 5 vol % CO2. To determine the viability of the cells, 20 μl of a Resazurin solution (90 mg/l) are added. After 4 h incubation at 37° C., the fluorescence is measured by extinction at ? =544 nm and an emission of ? =590 nm (Wallac Victor2; Perkin Elmer, USA). For the calculation of the cell viability, the emission value from untreated cells is set as 100% viability and the fluorescence intensity of treated cells are set in relation to the values of untreated cells. Viabilities are expressed as % values. The corresponding IC50 values of the compounds for cytotoxic activity are determined from the concentration-effect curves by means of non-linear regression. The analysis of the data is performed using a biostatistical program (Graph Pad Prism, USA).

Compared with COc1ccc(-c2c(-c3ccc(CN4CCC(c5n[nH]c(-c6ccccn6)n5)CC4)cc3)nc3ccccn23)cc1 [Example 15, 3-(4-methoxyphenyl)-2-(4-{[4-(5-pyridin-2-yl-1,2,4-triazol-3-yl)piperidin-1-yl]methyl}phenyl)imidazo[1,2-a]pyridine], c1ccc(-c2nc(C3CCN(Cc4ccc(-c5nc6ccccn6c5-c5ccncc5)cc4)CC3)n[nH]2)nc1 [Example 16, 3-pyridin-4-yl-2-(4-{[4-(5-pyridin-2-yl-1,2,4-triazol-3-yl)piperidin-1-yl]methyl}phenyl)imidazo[1,2-a]pyridine] is higher in IC50: less than 10 µM for the first, greater than 10 µM for the second. The first is the more potent here.

c1ccc(-c2nc(C3CCN(Cc4ccc(-c5nc6ccccn6c5-c5cccs5)cc4)CC3)n[nH]2)nc1 [Example 17, 2-(4-{[4-(5-pyridin-2-yl-1,2,4-triazol-3-yl)piperidin-1-yl]methyl}phenyl)-3-(2-thienyl)imidazo[1,2-a]pyridine] and Fc1cccc(-c2c(-c3ccc(CN4CCC(c5n[nH]c(-c6ccccn6)n5)CC4)cc3)nc3ccccn23)c1 [Example 14, 3-(3-fluorophenyl)-2-(4-{[4-(5-pyridin-2-yl-1,2,4-triazol-3-yl)piperidin-1-yl]methyl}phenyl)imidazo[1,2-a]pyridine] cannot be ordered by IC50: less than 10 µM for the first, less than 10 µM for the second.

Compared with Clc1cnc2nc(-c3ccc(CN4CCC(c5n[nH]c(-c6ccccn6)n5)CC4)cc3)c(-c3ccccc3)n2c1 [Example 21, 6-chloro-3-phenyl-2-(4-{[4-(5-pyridin-2-yl-1,2,4-triazol-3-yl)piperidin-1-yl]methyl}phenyl)imidazo[1,2-a]pyrimidine], c1ccc(-c2c(-c3ccc(CN4CCC(c5n[nH]c(-c6ccccn6)n5)CC4)cc3)nc3ncccn23)cc1 [Example 1, 3-phenyl-2-(4-{[4-(5-pyridin-2-yl-1,2,4-triazol-3-yl)piperidin-1-yl]methyl}phenyl)imidazo[1,2-a]pyrimidine] is higher in IC50: less than 10 µM for the first, greater than 10 µM for the second. The first is the more potent here.

Compared with Cc1cccc(-c2nnc(C3CCN(Cc4ccc(-c5nc6ncccn6c5-c5ccccc5)cc4)CC3)[nH]2)n1 [Example 63, 2-[4-({4-[5-(6-methylpyridin-2-yl)-4H-1,2,4-triazol-3-yl]piperidin-1-yl}methyl)phenyl]-3-phenylimidazo[1,2-a]pyrimidine], c1ccc(-c2nnc(C3CCN(Cc4ccc(-c5nc6ncccn6c5-c5ccccc5)cc4)CC3)[nH]2)cc1 [Example 121, 3-phenyl-2-(4-{[4-(5-phenyl-4H-1,2,4-triazol-3-yl)piperidin-1-yl]methyl}phenyl)imidazo[1,2-a]pyrimidine] is lower in IC50: greater than 10 µM for the first, less than 10 µM for the second.

Cc1ccc2nc(-c3ccc(CN4CCC(c5nnc(-c6ccccc6)[nH]5)CC4)cc3)c(-c3ccccc3)n2n1 [Example 119, 6-methyl-3-phenyl-2-(4-{[4-(5-phenyl-4H-1,2,4-triazol-3-yl)piperidin-1-yl]methyl}phenyl)imidazo[1,2-b]pyridazine] and c1ccc(-c2nnc(C3CCN(Cc4ccc(-c5nc6sccn6c5-c5ccccc5)cc4)CC3)[nH]2)cc1 [Example 122, 5-phenyl-6-(4-{[4-(5-phenyl-4H-1,2,4-triazol-3-yl)piperidin-1-yl]methyl}phenyl)imidazo[2,1-b][1,3]thiazole] cannot be ordered by IC50: less than 10 µM for the first, less than 10 µM for the second.

COc1nccn2c(-c3ccccc3)c(-c3ccc(CN4CCC(c5n[nH]c(-c6ccccn6)n5)CC4)cc3)nc12 [Example 27, 8-methoxy-3-phenyl-2-(4-{[4-(5-pyridin-2-yl-1,2,4-triazol-3-yl)piperidin-1-yl]methyl}phenyl)imidazo[1,2-a]pyrazine] and COc1ccn2c(-c3ccccc3)c(-c3ccc(CN4CCC(c5n[nH]c(-c6ccccn6)n5)CC4)cc3)nc2n1 [Example 24, 7-methoxy-3-phenyl-2-(4-{[4-(5-pyridin-2-yl-1,2,4-triazol-3-yl)piperidin-1-yl]methyl}phenyl)imidazo[1,2-a]pyrimidine] cannot be ordered by IC50: less than 10 µM for the first, less than 10 µM for the second.

Fc1ccc(-c2c(-c3ccc(CN4CCC(c5n[nH]c(-c6ccccn6)n5)CC4)cc3)nc3ncccn23)cc1 [Example 18, 3-(4-fluorophenyl)-2-(4-{[4-(5-pyridin-2-yl-1,2,4-triazol-3-yl)piperidin-1-yl]methyl}phenyl)imidazo[1,2-a]pyrimidine] and c1ccc(-c2c(-c3ccc(CN4CCC(c5n[nH]c(-c6ccccn6)n5)CC4)cc3)nc3cnccn23)cc1 [Example 37, 3-phenyl-2-(4-{[4-(5-pyridin-2-yl-1,2,4-triazol-3-yl)piperidin-1-yl]methyl}phenyl)imidazo[1,2-a]pyrazine] cannot be ordered by IC50: greater than 10 µM for the first, greater than 10 µM for the second.

Clc1ccn2c(-c3ccccc3)c(-c3ccc(CN4CCC(c5nnc(-c6ccccn6)[nH]5)CC4)cc3)nc2c1 [Example 54, 7-chloro-3-phenyl-2-(4-{[4-(5-pyridin-2-yl-4H-1,2,4-triazol-3-yl)piperidin-1-yl]methyl}phenyl)imidazo[1,2-a]pyridine] and Clc1ccc2nc(-c3ccc(CN4CCC(c5nnc(-c6ccccn6)[nH]5)CC4)cc3)c(-c3ccccc3)n2c1 [Example 7, 6-chloro-3-phenyl-2-(4-{[4-(5-pyridin-2-yl-4H-1,2,4-triazol-3-yl)piperidin-1-yl]methyl}phenyl)imidazo[1,2-a]pyridine] cannot be ordered by IC50: less than 10 µM for the first, less than 10 µM for the second.

Molecule N#Cc1ccn2c(-c3ccccc3)c(-c3ccc(CN4CCC(c5nnc(-c6ncccn6)[nH]5)CC4)cc3)nc2c1 [Example 78, 3-phenyl-2-[4-({4-[5-(pyrimidin-2-yl)-4H-1,2,4-triazol-3-yl]piperidin-1-yl}methyl)phenyl]imidazo[1,2-a]pyridine-7-carbonitrile] has an IC50 of less than 10 µM.

Same assay, conditions: read-out: Anti-proliferative/Cytotoxic activity (A549 cells); A549 cells, 72 h, Alamar Blue (Resazurin)

c1ccc(-c2c(-c3ccc(CN4CCC(c5nnc(-c6ncccn6)[nH]5)CC4)cc3)nc3scnn23)cc1 [Example 82, ′5-phenyl-6-(4-{[4-(5-pyrimidin-2-yl-4H-1,2,4-triazol-3-yl)piperidin-1-yl]methyl}phenyl)imidazo[2,1-b][1,3,4]thiadiazole] and c1ccc(-c2c(-c3ccc(CN4CCC(c5nnc(-c6ccncc6)[nH]5)CC4)cc3)nc3scnn23)cc1 [Example 60, ′5-phenyl-6-(4-{[4-(5-pyridin-4-yl-4H-1,2,4-triazol-3-yl)piperidin-1-yl]methyl}phenyl)imidazo[2,1-b][1,3,4]thiadiazole] cannot be ordered by IC50: less than 10 µM for the first, less than 10 µM for the second.

Going from c1ccc(-c2c(-c3ccc(CN4CCC(c5n[nH]c(-c6nccs6)n5)CC4)cc3)nc3ncccn23)cc1 [Example 84, ′3-phenyl-2-[4-({4-[5-(1,3-thiazol-2-yl)-1H-1,2,4-triazol-3-yl]piperidin-1-yl}methyl)phenyl]imidazo[1,2-a]pyrimidine] to Clc1ccc(-c2nnc(C3CCN(Cc4ccc(-c5nc6ncccn6c5-c5ccccc5)cc4)CC3)[nH]2)nc1 [Example 76, ′2-[4-({4-[5-(5-chloropyridin-2-yl)-4H-1,2,4-triazol-3-yl]piperidin-1-yl}methyl)phenyl]-3-phenylimidazo[1,2-a]pyrimidine], the IC50 falls from greater than 10 µM to less than 10 µM.

Going from N#Cc1ccn2c(-c3ccccc3)c(-c3ccc(CN4CCC(c5nnc(-c6ccccn6)[nH]5)CC4)cc3)nc2c1 [Example 114, ′3-phenyl-2-(4-{[4-(5-pyridin-2-yl-4H-1,2,4-triazol-3-yl)piperidin-1-yl]methyl}phenyl)imidazo[1,2-a]pyridine-7-carbonitrile] to N#Cc1cc2nc(-c3ccc(CN4CCC(c5nnc(-c6ccccn6)[nH]5)CC4)cc3)c(-c3ccccc3)n2cc1Br [Example 52, ′6-bromo-3-phenyl-2-(4-{[4-(5-pyridin-2-yl-4H-1,2,4-triazol-3-yl)piperidin-1-yl]methyl}phenyl)imidazo[1,2-a]pyridine-7-carbonitrile], the IC50 rises from less than 10 µM to greater than 10 µM.

Going from N#Cc1cccn2c(-c3ccccc3)c(-c3ccc(CN4CCC(c5nnc(-c6nccs6)[nH]5)CC4)cc3)nc12 [Example 86, ′3-phenyl-2-[4-({4-[5-(1,3-thiazol-2-yl)-4H-1,2,4-triazol-3-yl]piperidin-1-yl}methyl)phenyl]imidazo[1,2-a]pyridine-8-carbonitrile] to c1ccc(-c2c(-c3ccc(CN4CCC(c5nnc(-c6ccncc6)[nH]5)CC4)cc3)nc3sccn23)cc1 [Example 56, ′5-phenyl-6-(4-{[4-(5-pyridin-4-yl-4H-1,2,4-triazol-3-yl)piperidin-1-yl]methyl}phenyl)imidazo[2,1-b][1,3]thiazole], the IC50 falls from greater than 10 µM to less than 10 µM.

First: N#Cc1ccn2c(-c3ccccc3)c(-c3ccc(CN4CCC(c5noc(-c6ccccn6)n5)CC4)cc3)nc2c1 [Example 115, ′3-phenyl-2-(4-{[4-(5-pyridin-2-yl-1,2,4-oxadiazol-3-yl)piperidin-1-yl]methyl}phenyl)imidazo[1,2-a]pyridine-7-carbonitrile]
Second: Cc1ccc2nc(-c3ccc(CN4CCC(c5nnc(-c6ccccn6)[nH]5)CC4)cc3)c(-c3ccccc3)n2n1 [Example 53, ′6-methyl-3-phenyl-2-(4-{[4-(5-pyridin-2-yl-4H-1,2,4-triazol-3-yl)piperidin-1-yl]methyl}phenyl)imidazo[1,2-b]pyridazine]
The IC50 of the first is higher: greater than 10 µM for the first, less than 10 µM for the second.

Cc1ccc2nc(-c3ccc(CN4CCC(c5nnc(-c6ccc[nH]6)[nH]5)CC4)cc3)c(-c3ccccc3)n2n1 [Example 104, ′6-methyl-3-phenyl-2-[4-({4-[5-(1H-pyrrol-2-yl)-4H-1,2,4-triazol-3-yl]piperidin-1-yl}methyl)phenyl]imidazo[1,2-b]pyridazine] and c1ccc(-c2c(-c3ccc(CN4CCC(c5nnc(-c6ccc[nH]6)[nH]5)CC4)cc3)nc3scnn23)cc1 [Example 108, ′5-phenyl-6-[4-({4-[5-(1H-pyrrol-2-yl)-4H-1,2,4-triazol-3-yl]piperidin-1-yl}methyl)phenyl]imidazo[2,1-b][1,3,4]thiadiazole] cannot be ordered by IC50: less than 10 µM for the first, less than 10 µM for the second.

c1ccc(-c2c(-c3ccc(CN4CCC(c5nnc(-c6ccco6)[nH]5)CC4)cc3)nc3ccccn23)cc1 [Example 91, ′2-[4-({4-[5-(2-furyl)-4H-1,2,4-triazol-3-yl]piperidin-1-yl}methyl)phenyl]-3-phenylimidazo[1,2-a]pyridine] and c1ccc(-c2c(-c3ccc(CN4CCC(c5nnc(-c6cccs6)[nH]5)CC4)cc3)nc3ccccn23)cc1 [Example 97, ′3-phenyl-2-[4-({4-[5-(2-thienyl)-4H-1,2,4-triazol-3-yl]piperidin-1-yl}methyl)phenyl]imidazo[1,2-a]pyridine] cannot be ordered by IC50: less than 10 µM for the first, less than 10 µM for the second.
